Experimental data as given in patent US20250145665A1, “MACROCYCLIC PEPTIDES USEFUL AS MODULATORS OF TNF ALPHA” (Bristol-Myers Squibb Company, priority 2023, published 2025).
Starred links: 1 amine or outer side, 2 acyl side, 3 side chain; linkers in the order of their positions; H or OH if unused. Positions of bridges follow the written chain, without caps; N, C: chain ends. Non-standard residues stand in square brackets, D forms with d. Residues, ends and D or L forms follow the SMILES beside them. *: point of attachment. Bip(4'-NHCO-C6H4-3-CH2COOH) = N[C@@H](Cc1ccc(-c2ccc(NC(=O)c3cccc(CC(=O)O)c3)cc2)cc1)C(=O)O; Bip(4'-NHCO-C6H4-4-CH2COOH) = N[C@@H](Cc1ccc(-c2ccc(NC(=O)c3ccc(CC(=O)O)cc3)cc2)cc1)C(=O)O; Bip(4'-(3-HOOC-benzamido)) = N[C@@H](Cc1ccc(-c2ccc(NC(=O)c3cccc(C(=O)O)c3)cc2)cc1)C(=O)O; X5 = Cn1nc(C(=O)Nc2ccc(-c3ccc(C[C@H](N[*:1])C(=O)[*:2])cc3)cc2)c2ccccc21; Bip(4'-NH) = O=C([C@H](Cc1ccc(-c2ccc(N[*:3])cc2)cc1)N[*:1])[*:2]; Indazole3carbonyl(1-CH2COOH) = O=C(O)Cn1nc(C(=O)*)c2ccccc21; X72 = N=C(N)Nc1ccc(CCNC(=N)NCCC[C@@H](N[*:1])C(=O)[*:2])cc1; Bip(4'-COOH) = N[C@@H](Cc1ccc(-c2ccc(C(=O)O)cc2)cc1)C(=O)O; Bip(4'-NHAc) = CC(=O)Nc1ccc(-c2ccc(C[C@H](N)C(=O)O)cc2)cc1; X4 = N=C(NCCCc1cccc(N)c1)NCCC[C@@H](N[*:1])C(=O)[*:2]; Ala(imidazol-2-yl) = N[C@@H](Cc1ncc[nH]1)C(=O)O; dArg(ω-Bn) = N=C(NCCC[C@@H](N)C(=O)O)NCc1ccccc1; Ala(morpholin-4-yl) = N[C@@H](CN1CCOCC1)C(=O)O; Bip = N[C@@H](Cc1ccc(-c2ccccc2)cc1)C(=O)O; Ala(2-furyl) = N[C@@H](Cc1ccco1)C(=O)O; Tiq1c(1S) = O=C(O)[C@H]1NCCc2ccccc21; Hyp = O=C(O)[C@@H]1C[C@@H](O)CN1; X57 = Cn1c(C(=O)*)cc2c(Cl)cccc21; 2Pal = N[C@@H](Cc1ccccn1)C(=O)O; 2Thi = N[C@@H](Cc1cccs1)C(=O)O; Cha = N[C@@H](CC1CCCCC1)C(=O)O; X62 = COC(=O)Cc1cccc(C(=O)*)c1; Tle = CC(C)(C)[C@H](N)C(=O)O; Aze = O=C(O)[C@@H]1CCN1; Sar = CNCC(=O)O

target: TNFα (Homo sapiens, UniProt P01375); experiment: TNF-Induced HEK-Blue Assay; assay type: cell-based; details: not given
Sequence (P01375 77-233 limits assumed): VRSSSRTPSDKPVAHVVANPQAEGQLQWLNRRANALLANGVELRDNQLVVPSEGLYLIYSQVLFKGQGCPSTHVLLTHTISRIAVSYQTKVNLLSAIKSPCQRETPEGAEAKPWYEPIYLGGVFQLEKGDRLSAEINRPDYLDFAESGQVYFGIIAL

Structure (SMILES)	IC50 [nM]
CC(C)C[C@@H]1NC(=O)[C@H](CCCNC(=N)N)NC(=O)[C@H](C(C)C)NC(=O)[C@@H]2CCCN2C(=O)[C@H](C(C)C)NC(=O)[C@@H](CCCNC(=N)NCCCc2cccc(N)c2)NC(=O)[C@H](CC(=O)O)NC(=O)[C@@H]2CCCN2C(=O)CN(C)C(=O)[C@H](Cc2ccc(-c3ccc(NC(=O)c4nn(CC(=O)O)c5ccccc45)cc3)cc2)NC(=O)[C@H](Cc2ccc(-c3ccccc3)cc2)NC(=O)[C@H](CN2CCOCC2)NC(=O)CSC[C@@H](C(=O)NCC(N)=O)NC1=O [Example 393] ({CH2CO}-[Ala(morpholin-4-yl)][Bip][Bip(4'-NH)](Indazole3carbonyl(1-CH2COOH))[Sar]PD[X4]VPVRLCG-NH2; thioether N-13)	< 50
CC(C)C[C@@H]1NC(=O)[C@H](Cc2cnc[nH]2)NC(=O)[C@H](C(C)C)NC(=O)[C@@H]2CCCN2C(=O)[C@H](C(C)C)NC(=O)[C@@H](CCCNC(=N)NCc2ccccc2)NC(=O)[C@H](CC(=O)O)NC(=O)[C@H](Cc2ccccn2)NC(=O)CN(C)C(=O)[C@H](Cc2ccc(-c3ccc(NC(=O)c4nn(CC(=O)O)c5ccccc45)cc3)cc2)NC(=O)[C@H](Cc2ccc(-c3ccccc3)cc2)NC(=O)[C@H](CN2CCOCC2)NC(=O)CSC[C@@H](C(=O)NCC(N)=O)NC1=O [Example 628] ({CH2CO}-[Ala(morpholin-4-yl)][Bip][Bip(4'-NH)](Indazole3carbonyl(1-CH2COOH))[Sar][2Pal]D[dArg(ω-Bn)]VPVHLCG-NH2; thioether N-13)	< 50
CC[C@H](C)[C@@H]1NC(=O)[C@@H](CCCNC(=N)N)NC(=O)[C@H](CC(=O)O)NC(=O)[C@H](Cc2cnc[nH]2)NC(=O)CN(C)C(=O)[C@H](Cc2ccc(-c3ccc(NC(=O)c4cccc(CC(=O)OC)c4)cc3)cc2)NC(=O)[C@H](Cc2ccc(-c3ccccc3)cc2)NC(=O)[C@H](C(C)(C)C)NC(=O)CSC[C@@H](C(=O)NCC(N)=O)NC(=O)[C@H](CC(C)C)NC(=O)[C@H](Cc2c[nH]cn2)NC(=O)[C@H](C(C)C)NC(=O)[C@@H]2CCCN2C1=O [Example 502] ({CH2CO}-[Tle][Bip][Bip(4'-NH)](X62)[Sar]HD[dR]IPVHLCG-NH2; thioether N-13)	< 50

same assay, conditions: HEK-Blue-CD40L cells, NF-kB-driven secreted alkaline phosphatase reporter; TNFα 0.5 ng/ml; 18 h; read-out: TNF induced HEK-Blue assay IC50 value

IC50 [nM]	Structure (SMILES)
< 50	CC(=O)Nc1ccc(-c2ccc(C[C@@H]3NC(=O)[C@H](Cc4ccc(-c5ccccc5)cc4)NC(=O)[C@H](C(C)(C)C)NC(=O)CSC[C@@H](C(=O)NCC(N)=O)NC(=O)[C@H](CC(C)C)NC(=O)[C@H](Cc4cccs4)NC(=O)[C@H](C(C)C)NC(=O)[C@@H]4CCCN4C(=O)[C@H](C(C)C)NC(=O)[C@@H](CCCNC(=N)N)NC(=O)[C@H](CC(=O)O)NC(=O)[C@H](Cc4ccc(O)cc4)NC(=O)CN(C)C3=O)cc2)cc1 [Example 259] ({CH2CO}-[Tle][Bip][Bip(4'-NHAc)][Sar]YD[dR]VPV[2Thi]LCG-NH2; thioether N-13)
< 50	CC[C@H](C)[C@@H]1NC(=O)[C@@H](CCCNC(=N)N)NC(=O)[C@H](CC(=O)O)NC(=O)[C@H](Cc2cnc[nH]2)NC(=O)CN(C)C(=O)[C@H](Cc2ccc(-c3ccc(NC(=O)c4ccc(CC(=O)O)cc4)cc3)cc2)NC(=O)[C@H](Cc2ccc(-c3ccc(C(=O)O)cc3)cc2)NC(=O)[C@H](CC2CCCCC2)NC(=O)CSC[C@@H](C(=O)NCC(N)=O)NC(=O)[C@H](CC(C)C)NC(=O)[C@H](Cc2cnc[nH]2)NC(=O)[C@H](C(C)C)NC(=O)[C@@H]2CCCN2C1=O [Example 488] ({CH2CO}-[Cha][Bip(4'-COOH)][Bip(4'-NHCO-C6H4-4-CH2COOH)][Sar]HD[dR]IPVHLCG-NH2; thioether N-13)
< 50	CC[C@H](C)[C@@H]1NC(=O)[C@@H]2CCN2C(=O)[C@H]([C@@H](C)CC)NC(=O)[C@@H](CCCNC(=N)N)NC(=O)[C@H](CC(=O)O)NC(=O)[C@H](Cc2ccc(O)cc2)NC(=O)CN(C)C(=O)[C@H](Cc2ccc(-c3ccc(NC(C)=O)cc3)cc2)NC(=O)[C@H](Cc2ccc(-c3ccccc3)cc2)NC(=O)[C@H](C(C)(C)C)NC(=O)CSC[C@@H](C(=O)NCC(N)=O)NC(=O)[C@H](CC(C)C)NC(=O)[C@H](Cc2ccc(O)cc2)NC1=O [Example 294] ({CH2CO}-[Tle][Bip][Bip(4'-NHAc)][Sar]YD[dR]I[Aze]IYLCG-NH2; thioether N-13)
< 50	CC[C@H](C)[C@@H]1NC(=O)[C@@H]2CCCN2C(=O)[C@H](C(C)C)NC(=O)[C@@H](CCCNC(=N)N)NC(=O)[C@H](CC(=O)O)NC(=O)[C@H](Cc2ccccn2)NC(=O)CN(C)C(=O)[C@H](Cc2ccc(-c3ccc(NC(C)=O)cc3)cc2)NC(=O)[C@H](Cc2ccc(-c3ccccc3)cc2)NC(=O)[C@H](CN2CCOCC2)NC(=O)CSC[C@@H](C(=O)NCC(N)=O)NC(=O)[C@H](CC(C)C)NC(=O)[C@H](Cc2ncc[nH]2)NC1=O [Example 464] ({CH2CO}-[Ala(morpholin-4-yl)][Bip][Bip(4'-NHAc)][Sar][2Pal]D[dR]VPI[Ala(imidazol-2-yl)]LCG-NH2; thioether N-13)
200 to 2000	CC(C)C[C@@H]1NC(=O)[C@H](Cc2ccc(O)cc2)NC(=O)[C@H](C(C)C)NC(=O)[C@@H]2C[C@@H](O)CN2C(=O)[C@H](C(C)C)NC(=O)[C@H](CCCNC(=N)N)NC(=O)[C@H](CC(=O)O)NC(=O)[C@H](Cc2ccc(O)cc2)NC(=O)CN(C)C(=O)[C@H](Cc2ccc(-c3ccccc3)cc2)NC(=O)[C@H](Cc2ccc(-c3ccccc3)cc2)NC(=O)[C@H](CN2CCOCC2)NC(=O)CSC[C@@H](C(=O)NCC(N)=O)NC1=O [Example 73] ({CH2CO}-[Ala(morpholin-4-yl)][Bip][Bip][Sar]YDRV[Hyp]VYLCG-NH2; thioether N-13)
< 50	CC(=O)Nc1ccc(-c2ccc(C[C@@H]3NC(=O)[C@H](Cc4ccc(-c5ccccc5)cc4)NC(=O)[C@H](CC4CCCCC4)NC(=O)CSC[C@@H](C(=O)NCC(N)=O)NC(=O)[C@H](CC(C)C)NC(=O)[C@H](Cc4ncc[nH]4)NC(=O)[C@H](C(C)C)NC(=O)[C@@H]4CCCN4C(=O)[C@H](C(C)C)NC(=O)[C@@H](CCCNC(=N)N)NC(=O)[C@H](CC(=O)O)NC(=O)[C@H](Cc4ccco4)NC(=O)CN(C)C3=O)cc2)cc1 [Example 451] ({CH2CO}-[Cha][Bip][Bip(4'-NHAc)][Sar][Ala(2-furyl)]D[dR]VPV[Ala(imidazol-2-yl)]LCG-NH2; thioether N-13)
50 to 200	CC[C@H](C)[C@@H]1NC(=O)[C@@H]2CCN2C(=O)[C@H]([C@@H](C)CC)NC(=O)[C@@H](CCCNC(=N)N)NC(=O)[C@H](CC(=O)O)NC(=O)[C@H](Cc2ccc(O)cc2)NC(=O)CN(C)C(=O)[C@H](Cc2ccc(-c3ccc(NC(=O)c4cccc(C(=O)O)c4)cc3)cc2)NC(=O)[C@H](Cc2ccc(-c3ccccc3)cc2)NC(=O)[C@H](C(C)(C)C)NC(=O)CSC[C@@H](C(=O)NCC(N)=O)NC(=O)[C@H](CC(C)C)NC(=O)[C@H](Cc2ccc(O)cc2)NC1=O [Example 377] ({CH2CO}-[Tle][Bip][Bip(4'-(3-HOOC-benzamido))][Sar]YD[dR]I[Aze]IYLCG-NH2; thioether N-13)
50 to 200	CC[C@H](C)[C@@H]1NC(=O)[C@@H]2CCCN2C(=O)[C@H]([C@@H](C)CC)NC(=O)[C@@H](CCCNC(=N)N)NC(=O)[C@H](CC(=O)O)NC(=O)[C@H](Cc2ccccc2)NC(=O)CN(C)C(=O)[C@H](Cc2ccc(-c3ccc(NC(C)=O)cc3)cc2)NC(=O)[C@H](Cc2ccc(-c3ccc(C(=O)O)cc3)cc2)NC(=O)[C@H](CN2CCOCC2)NC(=O)CSC[C@@H](C(=O)NCC(N)=O)NC(=O)[C@H](CC(C)C)NC(=O)[C@H](Cc2cnc[nH]2)NC1=O [Example 284] ({CH2CO}-[Ala(morpholin-4-yl)][Bip(4'-COOH)][Bip(4'-NHAc)][Sar]FD[dR]IPIHLCG-NH2; thioether N-13)
< 50	CC[C@H](C)[C@@H]1NC(=O)[C@@H](CCCNC(=N)N)NC(=O)[C@H](CC(=O)O)NC(=O)[C@H](Cc2cnc[nH]2)NC(=O)CN(C)C(=O)[C@H](Cc2ccc(-c3ccc(NC(C)=O)cc3)cc2)NC(=O)[C@H](Cc2ccc(-c3ccc(C(=O)O)cc3)cc2)NC(=O)[C@H](CC2CCCCC2)NC(=O)CSC[C@@H](C(=O)NCC(N)=O)NC(=O)[C@H](CC(C)C)NC(=O)[C@H](Cc2cnc[nH]2)NC(=O)[C@H](C(C)C)NC(=O)[C@@H]2c3ccccc3CCN2C1=O [Example 276] ({CH2CO}-[Cha][Bip(4'-COOH)][Bip(4'-NHAc)][Sar]HD[dR]I[Tiq1c(1S)]VHLCG-NH2; thioether N-13)
50 to 200	CC[C@H](C)[C@@H]1NC(=O)[C@@H](CCCNC(=N)N)NC(=O)[C@H](CC(=O)O)NC(=O)[C@H](Cc2cnc[nH]2)NC(=O)CN(C)C(=O)[C@H](Cc2ccc(-c3ccc(NC(=O)c4cc5c(Cl)cccc5n4C)cc3)cc2)NC(=O)[C@H](Cc2ccc(-c3ccccc3)cc2)NC(=O)[C@H](CC2CCCCC2)NC(=O)CSC[C@@H](C(=O)NCC(N)=O)NC(=O)[C@H](CC(C)C)NC(=O)[C@H](Cc2cnc[nH]2)NC(=O)[C@H](C(C)C)NC(=O)[C@@H]2CCCN2C1=O [Example 319] ({CH2CO}-[Cha][Bip][Bip(4'-NH)](X57)[Sar]HD[dR]IPVHLCG-NH2; thioether N-13)
< 50	CC(C)C[C@@H]1NC(=O)[C@H](Cc2cccs2)NC(=O)[C@H](C(C)C)NC(=O)[C@@H]2CCCN2C(=O)[C@H](C(C)C)NC(=O)[C@@H](CCCNC(=N)N)NC(=O)[C@H](CC(=O)O)NC(=O)[C@H](Cc2ccccn2)NC(=O)CN(C)C(=O)[C@H](Cc2ccc(-c3ccc(NC(=O)c4cccc(CC(=O)O)c4)cc3)cc2)NC(=O)[C@H](Cc2ccc(-c3ccc(C(=O)O)cc3)cc2)NC(=O)[C@H](CN2CCOCC2)NC(=O)CSC[C@@H](C(=O)NCC(N)=O)NC1=O [Example 610] ({CH2CO}-[Ala(morpholin-4-yl)][Bip(4'-COOH)][Bip(4'-NHCO-C6H4-3-CH2COOH)][Sar][2Pal]D[dR]VPV[2Thi]LCG-NH2; thioether N-13)

Structure (SMILES)	IC50 [nM]
CC(C)C[C@@H]1NC(=O)[C@H](CCCNC(=N)N)NC(=O)[C@H](C(C)C)NC(=O)[C@@H]2CCCN2C(=O)[C@H](C(C)C)NC(=O)[C@@H](CCCNC(=N)NCCc2ccc(NC(=N)N)cc2)NC(=O)[C@H](CC(=O)O)NC(=O)[C@@H]2CCCN2C(=O)CN(C)C(=O)[C@H](Cc2ccc(-c3ccc(NC(=O)c4nn(C)c5ccccc45)cc3)cc2)NC(=O)[C@H](Cc2ccc(-c3ccccc3)cc2)NC(=O)[C@H](CN2CCOCC2)NC(=O)CSC[C@@H](C(=O)NCC(N)=O)NC1=O [Example 439] ({CH2CO}-[Ala(morpholin-4-yl)][Bip][X5][Sar]PD[X72]VPVRLCG-NH2; thioether N-13)	50 to 200
